Results published in US20230357232A1, “IMIDAZO[1,2-A]PYRIDINE COMPOUND AND PEST CONTROL AGENT” (Nippon Soda Co., Ltd., priority 2020, published 2023).

Experiments:
Plutella xylostella = experiment: Test of efficacy on Plutella xylostella (cabbage leaf dip); assay type: in vivo; settings: foliar, 72 h, cabbage leaves dipped 30 seconds, second instar larvae, after 3 days, 25° C., read-out: insecticidal rate
Protocol: (§1) 5 parts of the imidazo[1,2-a]pyridine compound of the present invention, 93.6 parts of dimethylformamide, and 1.4 parts of polyoxyethylene alkyl aryl ether were mixed and dissolved to prepare emulsion (I) containing 5% of the active ingredient.
(§2) An insecticidal rate was calculated according to the following expression: […]
The emulsion (I) was diluted with water such that the concentration of the compound of the present invention was 125 ppm. Cabbage leaves were dipped in the dilution for 30 seconds. The resulting cabbage leaves were placed in a petri dish. Five second instar larvae of Plutella xylostella were released thereto. The petri dish was placed in a thermostat chamber having a temperature of 25° C. and a humidity of 60%. Life and death were determined after 3 days from the release of the insects, and the insecticidal rate was calculated. The test was conducted in duplicate.

Phyllotreta striolata = experiment: Test of efficacy on Phyllotreta striolata (spray on Qing geng cai seedlings); assay type: in vivo; settings: 168 h, 125 ppm sprayed to Qing geng cai seedlings, adults, after 7 days, 25° C., read-out: insecticidal rate
Protocol: as §1, §2
The emulsion (I) was diluted with water such that the concentration of the compound of the present invention was 125 ppm to prepare a test chemical. The test chemical was sprayed to Qing geng cai seedlings (at the seventh true leaf stage) planted in 10-cm pots. The Qing geng cai seedlings were dried in air and then placed in a plastic cup. Ten Phyllotreta striolata adults were released thereto. The plastic cup was stored in a thermostat chamber having a temperature of 25° C. and a humidity of 65%. Life and death were determined after 7 days from the release of the insects, and the insecticidal rate was calculated. The test was conducted in duplicate.

melting point [°C]	Structure (SMILES)	pest or weed control at 125 ppm (Plutella xylostella) [%]	pest or weed control at 125 ppm (Phyllotreta striolata) [%]
	CCS(=O)(=O)c1c(-c2ncc(-c3ccc(OC(F)(F)C(F)F)cc3)n2C)nc2ccc(C(F)(F)F)cn12 [a-1]	≥ 80	
	CCS(=O)(=O)c1c(-c2ncc(-c3ccc(C(F)(F)F)nc3)n2C)nc2ccc(C(F)(F)F)cn12 [a-2]	≥ 80	≥ 80
	CCS(=O)(=O)c1c(-c2ncc(-c3ccc(OC(F)(F)F)cc3)n2C)nc2ccc(C(F)(F)F)cn12 [a-3, 3-(ethylsulfonyl)-2-(1-methyl-5-(4-(trifluoromethoxy)phenyl)-1H-imidazol-2-yl)-6-(trifluoromethyl)imidazo[1,2-a]pyridine]	≥ 80	≥ 80
	CCS(=O)(=O)c1c(-c2ncc(C(F)C(F)(C(F)(F)F)C(F)(F)F)n2C)nc2ccc(C(F)(F)F)cn12 (centres unmarked) [a-4]	≥ 80	
	CCS(=O)(=O)c1c(-c2cn(-c3ccc(OC(F)(F)F)cc3)cn2)nc2ccc(C(F)(F)F)cn12 [a-5]	≥ 80	≥ 80
	CCS(=O)(=O)c1c(-c2ncn(-c3ccc(OC(F)(F)F)cc3)n2)nc2ccc(C(F)(F)F)cn12 [a-6]	≥ 80	≥ 80
	CCS(=O)(=O)c1c(-c2ncc(-c3ccc(OC(F)(F)F)c(Cl)c3)n2C)nc2ccc(C(F)(F)F)cn12 [a-7]	≥ 80	≥ 80
	CCS(=O)(=O)c1c(-c2ncc(-c3ccc(C(F)(F)F)c(Cl)c3)n2C)nc2ccc(C(F)(F)F)cn12 [a-8]	≥ 80	
	CCS(=O)(=O)c1c(-n2cc(-c3ccc(OC(F)(F)F)cc3)cn2)nc2ccc(C(F)(F)F)cn12 [a-9]	≥ 80	
	CCS(=O)(=O)c1c(-c2ncc(-c3ccc(OC(F)(F)F)cc3)n2C)nc2cc(C(F)(F)F)ccn12 [a-10]	≥ 80	≥ 80
	CCS(=O)(=O)c1c(-c2cn(/C=C(\F)C(F)(F)C(F)(F)F)cn2)nc2ccc(C(F)(F)F)cn12 [a-11]	≥ 80	≥ 80
	CCS(=O)(=O)c1c(-c2cn(CC(F)(F)C(F)(F)C(F)(F)F)cn2)nc2ccc(C(F)(F)F)cn12 [a-12]	≥ 80	≥ 80
	CCS(=O)(=O)c1c(-c2ncc(/C=C/C(F)(F)C(F)(F)F)n2C)nc2ccc(C(F)(F)F)cn12 [a-13]	≥ 80	≥ 80
233 to 235	CCS(=O)(=O)c1c(-c2ncc(C=C(Br)Br)n2C)nc2ccc(C(F)(F)F)cn12 [a-14]		
236 to 238	CCS(=O)(=O)c1c(-c2ncc(C=C(Cl)Cl)n2C)nc2ccc(C(F)(F)F)cn12 [a-15]		
	CCS(=O)(=O)c1c(-c2ncc(/C=C(/F)C(F)(F)C(F)(F)F)n2C)nc2ccc(C(F)(F)F)cn12 [a-16]		≥ 80
	CCS(=O)(=O)c1c(-c2ncc(/C=C(\F)C(F)(F)C(F)(F)F)n2C)nc2ccc(C(F)(F)F)cn12 [a-17]	≥ 80	≥ 80
	CCS(=O)(=O)c1c(-c2ncc(C=C(F)C(F)(F)C(F)(F)F)n2C)nc2cc(C(F)(F)F)ccn12 [a-19]	≥ 80	≥ 80
	CCS(=O)(=O)c1c(-c2ncc(C=C(F)C(F)(F)C(F)(F)F)n2C)nc2ccc(C(F)(F)F)cn12 [a-20]	≥ 80	≥ 80
	CCS(=O)(=O)c1c(-c2ncc(C=C(Cl)C(F)(F)F)n2C)nc2cc(C3CC3)ccn12 [a-21]	≥ 80	≥ 80
	CCS(=O)(=O)c1c(-c2ncc(C=C(Cl)C(F)(F)F)n2C)nc2cc(Cl)ccn12 [a-22]	≥ 80	≥ 80
	CCS(=O)(=O)c1c(-c2ncc(C=C(Cl)C(F)(F)F)n2C)nc2ccc(Cl)cn12 [a-23]	≥ 80	≥ 80
	CCS(=O)(=O)c1c(-c2ncc(/C=C(\Cl)C(F)(F)F)n2C)nc2cc(C(F)(F)F)ccn12 [a-24]	≥ 80	
